Tests used:
mOat3 = target: T1, mOat3 (Mus musculus, UniProt O88909); test: Two-point inhibition of mOat3-mediated ES uptake in transfected HEK293 cells; format: in vitro ADME; conditions: ES 1 μM, 1 min
T1 construct: expressed in transfected cells; host or cells: HEK293
T1 sequence (O88909 1-537): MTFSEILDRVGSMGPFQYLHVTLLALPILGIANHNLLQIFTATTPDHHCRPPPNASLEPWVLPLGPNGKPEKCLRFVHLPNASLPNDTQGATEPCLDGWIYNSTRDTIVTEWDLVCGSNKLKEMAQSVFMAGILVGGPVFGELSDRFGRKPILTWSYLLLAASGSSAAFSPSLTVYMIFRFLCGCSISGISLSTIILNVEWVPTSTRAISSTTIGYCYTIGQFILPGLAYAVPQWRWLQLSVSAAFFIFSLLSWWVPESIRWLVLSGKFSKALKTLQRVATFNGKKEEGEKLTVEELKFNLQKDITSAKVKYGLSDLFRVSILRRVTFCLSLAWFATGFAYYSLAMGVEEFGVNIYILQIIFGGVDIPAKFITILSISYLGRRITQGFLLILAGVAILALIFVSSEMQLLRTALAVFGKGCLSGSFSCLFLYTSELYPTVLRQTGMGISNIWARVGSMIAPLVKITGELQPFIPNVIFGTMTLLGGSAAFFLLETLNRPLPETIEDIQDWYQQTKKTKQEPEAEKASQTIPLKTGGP
Protocol: (§1) Well-characterized mOct1-, mOct2-, mOat1-, mOat2-, mOat3-, mMate1-, hOAT1-, hOAT3-, hOAT4-, hMRP2-, mMdr1a- and mMdr1b-transfected HEK293 cells and the respective vector-transfected control HEK293 cells were used.[42],[51],[52] All HEK293 cells (transporter-transfected and vector-transfected) were cultured in DMEM (Sigma, high glucose, 10% FBS, 1% penicillin (10,000 Units/mL)/streptomycin (10 mg/mL)) at 37°C under 5% CO2 in humidified atmosphere. The cells were routinely checked for the absence of mycoplasma infection. For the preparation of HEK293 cell monolayers, 24-well plates were pretreated with a poly-D-lysine hydrobromide solution (0.1 mg/mL). […]
(§2) For the uptake assay, the growth medium was aspirated, and each well was rinsed three times with 0.5 mL of incubation buffer (HBSS supplemented with 20 mM HEPES, pH 7.4) and incubated for 20 min at 37 °C. […] Cells were solubilized with 0.6 mL of 1N NaOH overnight and transferred into scintillation vials. ^3H and ^14C contents were measured after the addition of 2.5 mL of scintillator in a liquid scintillation counter.
(§3) The cellular protein amount was determined in parallel for each cell line (vector- and transporter-transfected) from six wells in a different 24-well reference plate using the Bradford method. […]
(§4) The inhibitory effect (I(%)) was calculated according to the formula: [drawing 5] […]

mOct2 = target: T2, mOct2 (Mus musculus, UniProt O70577); test: Two-point inhibition of mOct2-mediated MPP uptake in transfected HEK293 cells; format: in vitro ADME; conditions: 1 and 10 μM; MPP 10 μM, 1 min
T2 construct: expressed in transfected cells; host or cells: HEK293
T2 sequence (O70577 1-553): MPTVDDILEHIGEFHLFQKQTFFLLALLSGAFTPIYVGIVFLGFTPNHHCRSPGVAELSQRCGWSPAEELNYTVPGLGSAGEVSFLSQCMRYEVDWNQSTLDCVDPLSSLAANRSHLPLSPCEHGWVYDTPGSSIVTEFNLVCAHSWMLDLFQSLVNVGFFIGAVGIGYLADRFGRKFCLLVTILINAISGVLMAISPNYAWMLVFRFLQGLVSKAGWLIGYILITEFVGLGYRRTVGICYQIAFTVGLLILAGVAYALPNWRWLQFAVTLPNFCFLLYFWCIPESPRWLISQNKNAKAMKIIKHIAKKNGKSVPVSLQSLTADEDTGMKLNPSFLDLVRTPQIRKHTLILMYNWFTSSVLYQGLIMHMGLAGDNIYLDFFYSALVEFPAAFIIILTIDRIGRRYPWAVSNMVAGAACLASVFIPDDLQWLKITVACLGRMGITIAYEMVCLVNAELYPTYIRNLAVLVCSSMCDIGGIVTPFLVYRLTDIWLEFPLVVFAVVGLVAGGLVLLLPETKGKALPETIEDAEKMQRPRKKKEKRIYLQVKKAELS
Protocol: as §1, §2, §3, §4

Row | SMILES | inhibitory effect on mOat3 (in words) (mOat3; 1 and 10 μM) | inhibitory effect on mOct2 (in words) (mOct2) | inhibition at 10 µM (mOat3; HEK293, at 10 μM, read-out: inhibitory effect on mOat3) [%]
1 | Cc1ccc2c(C)c3c(c(O)c2c1O)C(=O)[C@@]1(O)C(=O)C(C(N)=O)=C(O)[C@@H](N)[C@H]1C3 [CDCHD, amidochelocardin] | no inhibitory effect | No inhibitory effect | –
2 | CC(=O)C1=C(O)[C@@H](N)[C@H]2Cc3c(c(O)c4c(O)c(C)ccc4c3C)C(=O)[C@@]2(O)C1=O [CHD, chelocardin] | – | No inhibitory effect | > 50
